Values quoted from earlier work as cited in patent US20040009220A1, “Rate-controlled beta blockers and process for forming same” (priority 2001, published 2004).

Key:
[1] = in man

SMILES	plasma half life [1]	solubility in water
COCCc1ccc(OCC(O)CNC(C)C)cc1 (centres unmarked) [Metroprolol]	three to seven	
COCCc1ccc(OCC(O)CNC(C)C)cc1 (centres unmarked) [metoprolol succinate]		freely soluble in water
